Drawing on patent publication US12156880B2, “Heterocyclic RIP1 kinase inhibitors” (Rigel Pharmaceuticals, Inc., priority 2021, dated 2024), this text covers IC50 for 17 compounds.

The test system of assay [1] is U937 cells. Kind of assay: U937 cell necroptosis assay (TNFa + zVAD, CellTiter-Glo recovery). The assay is classed as cell-based. The settings on record: Homo sapiens, U-937, 18 h, TNFa 2 ng/mL + zVAD-fmk, read-out: U937 Zvad TNF CTG Recovery, U937, TNFa + zVAD (IC50). As for the experimental part: In this example, U937 and L929 cells were exposed to compounds of the present disclosure and a cell necroptosis assay was conducted to evaluate the compounds' activity against human RIP1 and murine RIP1.
U937 and L929 cells were obtained from the American Type Culture Collection (Manassas, VA, USA). Both cells were maintained in logarithmic growth phase in complete RPMI 1640 media (Sigma, ST Louis, MO, USA) supplemented with 10% fetal bovine serum (Sigma, ST Louis, MO, USA) at 37° C. with 5% CO2. For necroptosis assay, L929 cells were plated for 18 h in 100 μL/well medium at 10K cells/well in Costar 96-well black clear-bottom plates (Fisher Scientific, Hampton, NH, USA); U937 cells were plated on the day of the assay in 50 μL/well medium containing 60 uM zVAD-fmk (Lonza, Basel, Switzerland) at 50K cells/well. Medium from L929 cells were removed from the 96-well plates and replaced with 50 μL/well new medium containing 40 uM zVAD-fmk. Each compound of the present disclosure evaluated in this example was serially diluted in DMSO from 2.5 mM in 4-fold dilutions, and then diluted 1:125 in complete medium. 50 μL/well 2× of the compound was then added to the cells in the plates. The cells were pre-incubated with the compound for 1 hour at 37° C. with 5% CO2 and before addition of 10 μL/well 11×TNFa (Peprotech, Rocky Hill, NJ, USA) to give a final concentration of 2 ng/mL for TNFa. The relative amount of necroptosis cells was determined by luminescent using a Wallac Victor2 Luminometer (PerkinElmer, Waltham, MA, USA) and a CellTiter-Glo® Luminescent Cell Viability Reagent Assay (Promega, Madison, WI, USA) added per manufacturer instructions after 18 hours of TNFa stimulation at 37° C. with 5% CO2. This example establishes that embodiments of the compounds described herein have unexpectedly potent activity against human RIP1 and murine RIP1, which allows their assessment in in vivo mouse models of disease.
(In general: In ATP-based viability assays light output follows the ATP content of the culture.)

Assay [2] deals with T1, RIPK1 (Homo sapiens, UniProt Q13546).
T1 sequence (Q13546 1-671): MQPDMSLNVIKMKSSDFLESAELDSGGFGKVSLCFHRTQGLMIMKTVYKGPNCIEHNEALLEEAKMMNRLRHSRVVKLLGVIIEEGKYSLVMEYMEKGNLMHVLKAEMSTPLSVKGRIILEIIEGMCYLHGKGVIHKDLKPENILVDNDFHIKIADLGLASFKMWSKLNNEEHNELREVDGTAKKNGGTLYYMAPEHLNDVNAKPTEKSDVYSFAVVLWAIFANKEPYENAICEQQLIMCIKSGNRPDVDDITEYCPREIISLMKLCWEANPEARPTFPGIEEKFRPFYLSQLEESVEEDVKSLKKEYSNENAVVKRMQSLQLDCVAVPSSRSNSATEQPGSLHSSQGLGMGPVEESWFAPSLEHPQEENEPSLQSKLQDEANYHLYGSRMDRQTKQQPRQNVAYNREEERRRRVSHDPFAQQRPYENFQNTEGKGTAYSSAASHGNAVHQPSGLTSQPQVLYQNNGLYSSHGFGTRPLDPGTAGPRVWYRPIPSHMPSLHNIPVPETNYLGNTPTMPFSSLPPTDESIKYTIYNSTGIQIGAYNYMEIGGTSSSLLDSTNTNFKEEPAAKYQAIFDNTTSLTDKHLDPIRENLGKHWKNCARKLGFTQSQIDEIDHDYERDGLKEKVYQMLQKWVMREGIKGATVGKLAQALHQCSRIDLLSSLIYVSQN
Kind of assay: RIPK1 ADP-Glo biochemical kinase assay. The settings on record: read-out: RIPK1 ADP-Glo Kinase (IC50). As for the experimental part:
In this example, compounds of the disclosure were evaluated using a biochemical assay using the ADP-Glo™ technology.
ADP-Glo™ (Promega, Madison, WI, USA) reagents were thawed at ambient temperature. Kinase Detection Reagent was prepared by mixing kinase detection buffer with the lyophilized kinase detection substrate.
A […] stock volume of 5× Reaction Kinase Buffer was made by mixing 1000 μl of 1M MgCl2, 500 μl of 1M Tris-HCL pH7.4, 0.5 mg/ml (25 mg) of BSA, and 3475 μl of distilled H2O. A 3 ml 2× working stock volume of Reaction Kinase Buffer was made containing a final concentration of 100 μM DTT and 4 mM MnCl2.
Components of RIPK1 enzyme (Rigel Pharmaceuticals, South San Francisco, CA, USA) were thawed on ice. Diluted RIPK1 was prepared in 1× Kinase Reaction Buffer (diluted from 2× buffer) to 31 ng/well.
1.0 ul of diluted compound was added to a 384 well plate in duplicate. […] The final reaction volume was 5.0 μl.
The plate was quickly centrifuged and the reaction was incubated at 30° C. for 30 minutes. Adding 5 μl of ADP-Glo™ terminated the reaction. The plate was quickly centrifuged and the reaction was incubated at room temperature for 40 minutes. Kinase Detection Reagent was then added and incubated at room temperature for 30 minutes. The relative light unit (RLU) of kinase reaction was determined by luminescent (Luminescence 0.1 s) using a Wallac Victor2 Luminometer (PerkinElmer, Waltham, MA, USA).
A general note: ADP-Glo first removes unused ATP, then detects ADP through luciferase.

As usually defined, the IC50 is the concentration needed to halve the response being measured. Turning to `CN1C(=O)[C@@H](NC(=O)c2cc(Cc3cccc(O)n3)ccn2)COc2ccc(C#CC3(O)COC3)cc21` [I-10, (S)—N-(7-((3-hydroxyoxetan-3-yl)ethynyl)-5-methyl-4-oxo-2,3,4,5-tetrahydrobenzo[b][1,4]oxazepin-3-yl)-4-((6-hydroxypyridin-2-yl)methyl)picolinamide], the values for the IC50 in assay [1] and in assay [2] were 2830 nM and 304 nM, respectively. On the same counts, the results for `CN1C(=O)[C@@H](NC(=O)c2cc(Oc3ccc(C(F)(F)F)nc3)ccn2)COc2ccc(C#CC3(O)COC3)cc21` [I-81, (S)—N-(7-((3-hydroxyoxetan-3-yl)ethynyl)-5-methyl-4-oxo-2,3,4,5-tetrahydrobenzo[b][1,4]oxazepin-3-yl)-4-((6-(trifluoromethyl)pyridin-3-yl)oxy)picolinamide] are 5290 nM and 392 nM.

Turning to `CN1C(=O)[C@@H](NC(=O)c2cc(O)ccn2)COc2ccc(C#CC(C)(C)O)cc21` [I-86, (S)-4-hydroxy-N-(7-(3-hydroxy-3-methylbut-1-yn-1-yl)-5-methyl-4-oxo-2,3,4,5-tetrahydrobenzo[b][1,4]oxazepin-3-yl)picolinamide], the IC50 in assay [1] stood at 59600 nM. As for `CN1C(=O)[C@@H](NC(=O)c2cc(O)ccn2)COc2ccc(C#CC3(O)COC3)cc21` [I-89, (S)-4-hydroxy-N-(7-((3-hydroxyoxetan-3-yl)ethynyl)-5-methyl-4-oxo-2,3,4,5-tetrahydrobenzo[b][1,4]oxazepin-3-yl)picolinamide], the IC50 in assay [1] was determined as 28200 nM.

For `CN1C(=O)[C@@H](NC(=O)n2cc(Oc3cccc(F)n3)cn2)COc2ccc(Br)cc21` [I-110, (S)—N-(7-Bromo-5-methyl-4-oxo-2,3,4,5-tetrahydrobenzo[b][1,4]oxazepin-3-yl)-4-((6-fluoropyridin-2-yl)oxy)-1H-pyrazole-1-carboxamide], the half-maximal inhibitory concentration (IC50) in assay [1] came out at 9070 nM; in assay [2], 6470 nM. In the case of `CN1C(=O)[C@@H](NC(=O)c2cc(Oc3ccc(C(F)(F)F)nc3)ccn2)COc2ccc(C#CC(C)(C)O)cc21` [I-80, (S)—N-(7-(3-hydroxy-3-methylbut-1-yn-1-yl)-5-methyl-4-oxo-2,3,4,5-tetrahydrobenzo[b][1,4]oxazepin-3-yl)-4-((6-(trifluoromethyl)pyridin-3-yl)oxy)picolinamide], the IC50 in assay [1] came out at 7310 nM; in assay [2], 4530 nM. As to `CN1C(=O)[C@@H](NC(=O)n2cc(Oc3cccc(F)n3)cn2)COc2ccc(C#CC(C)(C)O)cc21` [I-112, (S)-4-((6-Fluoropyridin-2-yl)oxy)-N-(7-(3-hydroxy-3-methylbut-1-yn-1-yl)-5-methyl-4-oxo-2,3,4,5-tetrahydrobenzo[b][1,4]oxazepin-3-yl)-1H-pyrazole-1-carboxamide], the half-maximal inhibitory concentration (IC50) in assay [1] is 1850 nM; in assay [2], 80.4 nM. Turning to `Cc1noc(C)c1Cc1ccnc(C(=O)N[C@H]2COc3ccc(C#CC4(O)COC4)cc3N(C)C2=O)c1` [I-69, (S)-4-((3,5-dimethylisoxazol-4-yl)methyl)-N-(7-((3-hydroxyoxetan-3-yl)ethynyl)-5-methyl-4-oxo-2,3,4,5-tetrahydrobenzo[b][1,4]oxazepin-3-yl)picolinamide], the IC50 in assay [1] was determined as 2830 nM; in assay [2], 326 nM. On the same counts, the results for `Cc1noc(C)c1Cc1ccnc(C(=O)N[C@H]2COc3ccc(C#CC(C)(C)O)cc3N(C)C2=O)c1` [I-68, (S)-4-((3,5-dimethylisoxazol-4-yl)methyl)-N-(7-(3-hydroxy-3-methylbut-1-yn-1-yl)-5-methyl-4-oxo-2,3,4,5-tetrahydrobenzo[b][1,4]oxazepin-3-yl)picolinamide] are 7160 nM and 467 nM.

On to `CN1C(=O)[C@@H](NC(=O)n2cc(Cc3cccnn3)cn2)COc2ccc(C#CC(C)(C)O)cc21` [I-17, (S)—N-(7-(3-Hydroxy-3-methylbut-1-yn-1-yl)-5-methyl-4-oxo-2,3,4,5-tetrahydrobenzo[b][1,4]oxazepin-3-yl)-4-(pyridazin-3-ylmethyl)-1H-pyrazole-1-carboxamide], for which the IC50 was found to be 715 nM in assay [1] and 111 nM in assay [2].

`CN1C(=O)[C@@H](NC(=O)n2cc(Cc3ccc(F)nc3F)cn2)COc2ccc(Br)cc21` [I-49, (S)—N-(7-Bromo-5-methyl-4-oxo-2,3,4,5-tetrahydrobenzo[b][1,4]oxazepin-3-yl)-4-((2,6-difluoropyridin-3-yl)methyl)-1H-pyrazole-1-carboxamide]: the IC50 was 170 nM in assay [1] and 207 nM in assay [2]. Consider `CN1C(=O)[C@@H](NC(=O)n2cc(Cc3ccccn3)cn2)COc2ccc(C#CC(C)(C)O)cc21` [I-8, (S)—N-(7-(3-Hydroxy-3-methylbut-1-yn-1-yl)-5-methyl-4-oxo-2,3,4,5-tetrahydrobenzo[b][1,4]oxazepin-3-yl)-4-(pyridin-2-ylmethyl)-1H-pyrazole-1-carboxamide], for which, in assay [2], the IC50 amounted to 26.4 nM. As to `CN1C(=O)[C@@H](NC(=O)n2cc(Cc3ncccn3)cn2)COc2ccc(Br)cc21` [I-30, (S)—N-(7-Bromo-5-methyl-4-oxo-2,3,4,5-tetrahydrobenzo[b][1,4]oxazepin-3-yl)-4-(pyrimidin-2-ylmethyl)-1H-pyrazole-1-carboxamide], the figures for the IC50 in assay [1] and in assay [2] were 7210 nM and 480 nM, respectively. As for `CN1C(=O)[C@@H](NC(=O)c2cc(Oc3ccccn3)ccn2)COc2ccc(C#CC(C)(C)O)cc21` [I-128, (S)—N-(7-(3-hydroxy-3-methylbut-1-yn-1-yl)-5-methyl-4-oxo-2,3,4,5-tetrahydrobenzo[b][1,4]oxazepin-3-yl)-4-(pyridin-2-yloxy)picolinamide], the half-inhibitory concentration (IC50) in assay [1] is 199000 nM; in assay [2], 2150 nM.

For the compound `Cc1cccc(Cc2cnn(C(=O)N[C@H]3COc4ccc(Br)cc4N(C)C3=O)c2)n1` [I-19, (S)—N-(7-Bromo-5-methyl-4-oxo-2,3,4,5-tetrahydrobenzo[b][1,4]oxazepin-3-yl)-4-((6-methylpyridin-2-yl)methyl)-1H-pyrazole-1-carboxamide], the IC50 in assay [1] stood at 264 nM. On the same count and under the same terms, the value for `CN1C(=O)[C@@H](NC(=O)n2cc(Cc3ccc(F)nc3)cn2)COc2ccc(Br)cc21` [I-24, (S)—N-(7-Bromo-5-methyl-4-oxo-2,3,4,5-tetrahydrobenzo[b][1,4]oxazepin-3-yl)-4-((6-fluoropyridin-3-yl)methyl)-1H-pyrazole-1-carboxamide] was 69.8 nM; that for `CN1C(=O)[C@@H](NC(=O)n2cc(Cc3cccnn3)cn2)COc2ccc(Br)cc21` [I-25, (S)—N-(7-Bromo-5-methyl-4-oxo-2,3,4,5-tetrahydrobenzo[b][1,4]oxazepin-3-yl)-4-(pyridazin-3-ylmethyl)-1H-pyrazole-1-carboxamide] was 4120 nM.
